Experimental data reported in US11284615B2, “Cryopreservation using sucralose” (East Carolina University, priority 2015, dated 2022).

Key:
[1] = Differential scanning calorimetry of unilamellar DPPC vesicles with added sugar; assay type: physicochemical; settings: for cooperativity of the transition (peak width at half peak height, PWHH) / enthalpy of main phase transition / main phase transition temperature of DPPC liposomes: increasing mole ratio of sugar to lipid; for main phase transition temperature of DPPC liposomes: DSC 30-60 °C at 2 °C/min, DPPC alone ~42 °C
Method: Methods: Unilamellar vesicles were prepared by extrusion. Sucrose or sucralose was added to the vesicles to achieve the desired mole ratio after vesicle formation. Differential scanning calorimetry was used to examine the main phase behavior of the liposome bilayer. Thermograms were obtained in the heating and cooling directions between 30° C. and 60° C. at a rate of 2° C./min.

red blood cells [2] = assay: Percent hemolysis of red blood cells on addition of sucralose (no freezing); assay type: cell-based, sheep; settings: measured against PBS buffer and triton X
Method: (§1) Experiments that measure the percent hemolysis of red blood cells before and after treatment were carried out using sheep blood.
(§2) We measured absorption at three wavelengths (450 nm, 500 nm and 525 nm, shown in FIGS. 10, 11 and 12, respectively). […] That is why the error bars are smallest for those.

red blood cells [3] = assay: Percent hemolysis of red blood cells frozen with sucralose and thawed; assay type: cell-based, sheep; settings: for protective effect compared with 20% glycerol solution: equivalent volume of 20% v/v glycerol, blood frozen for 48 hours; for protection during freezing (hemolysis): measured against triton X and PBS
Method: as §1
This is data from blood frozen for 48 hours.
as §2

mouse myoblasts = assay: Cytotoxicity of sucralose on nucleated cells; assay type: cell-based
Source text: Protection against hemolysis of red blood cells in the presence of increasing amounts of sucralose was examined at 3.5×(˜0.7 billion cells/ml) and 7×(˜1.4 billion cells/ml) the original red blood cell count, and are shown in FIGS. 15A and 15B, respectively. […] In addition, studies on the cytotoxicity of sucralose on nucleated cells, mouse myoblasts, indicate that sucralose concentrations in excess of about 2.5% w/v may have toxic effects.

Compound	shoulders in thermograms (indicative of phase separation) ([1]; cooling cycle)	shoulders in thermograms (indicative of phase separation) ([1]; heating cycle)	cooperativity of the transition (peak width at half peak height, PWHH) [1]	enthalpy of main phase transition [1]	main phase transition temperature of DPPC liposomes [1]	induction of hemolysis on addition (red blood cells [2])	protective effect compared with 20% glycerol solution (red blood cells [3])	protective effect compared with 20% glycerol solution (red blood cells [3]; listed as sugar)	protection during freezing (hemolysis) (red blood cells [3]; frozen and thawed)	protection during freezing (hemolysis) (red blood cells [3]; frozen and thawed, listed as sugar)	sucralose concentration resulting in decreased efficacy in protecting red blood cells from hemolysis (red blood cells [3]; frozen and thawed, ~0.7 and ~1.4 billion cells/ml)	amount of sucralose required for cryopreservation of red blood cells (red blood cells [3]; red blood cell count about 0.2 to 1.4 billion cells/ml)	sucralose concentration that may have toxic effects (mouse myoblasts)
OC[C@H]1O[C@H](O[C@]2(CCl)O[C@H](CCl)[C@@H](O)[C@@H]2O)[C@H](O)[C@@H](O)[C@H]1Cl [sucralose, 1,6-Dichloro-1,6-dideoxy-β-D-fructofuranosyl-4-chloro-4-deoxy-α-D-galactopyranoside]	not seen	a shoulder is seen in some thermograms	drastic decrease in cooperativity	remained essentially unchanged	decreased significantly	does not induce hemolysis	better than using an equivalent volume of a 20% glycerol solution	performs better than a 20% v/v solution of glycerol	substantially reduces hemolysis	protective effect	above 2.5 % w/v	increases with an increase of red blood cell concentration	above 2.5 % w/v
OC[C@H]1O[C@@](CO)(O[C@H]2O[C@H](CO)[C@@H](O)[C@H](O)[C@H]2O)[C@@H](O)[C@@H]1O [sucrose]	shoulders are again observed	shoulders appear	decrease in cooperativity	remains relatively stable	little change								
